Columns and labels:
[1] = molecular target: T1, Heat shock protein HSP 90-alpha (Homo sapiens, UniProt P07900); test: Displacement of fluorescein-labelled VER160364 from HSP90A (unknown origin) after 90 mins by fluorescence polarization assay
[2] = molecular target: T2, [Pyruvate dehydrogenase (acetyl-transferring)] kinase isozyme 1, mitochondrial (Homo sapiens, UniProt Q15118); test: Inhibition of fluorescein-labelled VER160364 binding to PDHK1 (unknown origin) after 90 mins by fluorescence polarization assay
[3] = molecular target: T2, [Pyruvate dehydrogenase (acetyl-transferring)] kinase isozyme 1, mitochondrial; test: Binding affinity to PDHK1 (unknown origin) by surface plasmon resonance method
[4] = molecular target: T2, [Pyruvate dehydrogenase (acetyl-transferring)] kinase isozyme 1, mitochondrial; test: Inhibition of PDHK1 (unknown origin) assessed as decrease in phosphorylation of E1alpha subunit at serine 293 residue after 1 hr by DELFIA
[5] = molecular target: T2, [Pyruvate dehydrogenase (acetyl-transferring)] kinase isozyme 1, mitochondrial; test: Inhibition of PDHK1 in human PC3 cells assessed as decrease in phosphorylation of E1alpha subunit at serine 293 residue after 1 hr by ELISA; assay type: cell-based
PC-3 = test: Antiproliferative activity against human PC3 cells after 96 hrs by sulphorhodamine B assay; assay type: functional; settings: PC-3, 96 h
[6] = molecular target: T2, [Pyruvate dehydrogenase (acetyl-transferring)] kinase isozyme 1, mitochondrial; test: Binding affinity to PDHK1 (unknown origin) by isothermal titration calorimetry
[7] = molecular target: T1, Heat shock protein HSP 90-alpha; test: Displacement of fluorescein-labelled VER160364 from HSP90A (unknown origin) at 200 uM after 90 mins by fluorescence polarization assay relative to control
[8] = molecular target: T1, Heat shock protein HSP 90-alpha; test: Dissociation rate from HSP90A (unknown origin) by surface plasmon resonance method
[9] = molecular target: [Pyruvate dehydrogenase (acetyl-transferring)] kinase isozyme 2, mitochondrial (Homo sapiens, UniProt Q15119); test: Inhibition of fluorescein-labelled VER160364 binding to PDHK2 (unknown origin) after 90 mins by fluorescence polarization assay
[10] = molecular target: T3, [Pyruvate dehydrogenase (acetyl-transferring)] kinase isozyme 4, mitochondrial (Homo sapiens, UniProt Q16654)
Description: Inhibition of PDHK4 (unknown origin) assessed as decrease in phosphorylation of E1alpha subunit at serine 293 residue after 1 hr by DELFIA

[11] = molecular target: T2, [Pyruvate dehydrogenase (acetyl-transferring)] kinase isozyme 1, mitochondrial; test: Inhibition of SUMO-tagged PDHK1 (unknown origin) in presence of [gamma-32P]ATP after 30 mins by SDS-PAGE based phosphor imaging method
[12] = Inhibition of PDHK (unknown origin); parameters: species or system Homo sapiens
[13] = molecular target: [Pyruvate dehydrogenase (acetyl-transferring)] kinase isozyme 3, mitochondrial (Homo sapiens, UniProt Q15120); test: Inhibition of fluorescein-labelled VER160364 binding to PDHK3 (unknown origin) after 90 mins by fluorescence polarization assay
[14] = molecular target: T3, [Pyruvate dehydrogenase (acetyl-transferring)] kinase isozyme 4, mitochondrial; test: Inhibition of fluorescein-labelled VER160364 binding to PDHK4 (unknown origin) after 90 mins by fluorescence polarization assay

T2 sequence (Q15118 whole entry): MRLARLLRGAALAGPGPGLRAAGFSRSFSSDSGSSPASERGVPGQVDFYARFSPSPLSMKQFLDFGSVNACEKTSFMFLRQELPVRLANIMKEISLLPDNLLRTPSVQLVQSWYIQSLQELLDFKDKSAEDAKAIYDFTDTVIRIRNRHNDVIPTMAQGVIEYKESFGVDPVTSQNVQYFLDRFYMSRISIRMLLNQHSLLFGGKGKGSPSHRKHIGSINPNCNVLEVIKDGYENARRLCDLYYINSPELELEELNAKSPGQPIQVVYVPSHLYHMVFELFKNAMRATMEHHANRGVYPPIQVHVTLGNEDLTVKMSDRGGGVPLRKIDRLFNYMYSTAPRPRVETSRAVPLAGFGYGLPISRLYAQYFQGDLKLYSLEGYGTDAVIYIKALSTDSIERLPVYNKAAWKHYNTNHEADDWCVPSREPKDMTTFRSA
T3 sequence (Q16654 whole entry): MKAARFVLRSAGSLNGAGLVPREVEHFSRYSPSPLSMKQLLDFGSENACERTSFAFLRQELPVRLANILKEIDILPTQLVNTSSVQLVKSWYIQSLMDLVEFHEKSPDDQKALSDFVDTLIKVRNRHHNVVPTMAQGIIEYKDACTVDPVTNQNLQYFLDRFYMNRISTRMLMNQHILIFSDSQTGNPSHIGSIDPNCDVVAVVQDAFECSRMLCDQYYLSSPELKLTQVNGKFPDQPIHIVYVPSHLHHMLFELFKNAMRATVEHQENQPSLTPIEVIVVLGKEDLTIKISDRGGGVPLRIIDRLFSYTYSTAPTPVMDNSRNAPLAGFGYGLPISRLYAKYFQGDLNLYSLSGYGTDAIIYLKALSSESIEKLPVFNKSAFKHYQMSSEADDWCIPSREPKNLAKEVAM
Sequence of [Pyruvate dehydrogenase (acetyl-transferring)] kinase isozyme 3, mitochondrial (Q15120 whole entry): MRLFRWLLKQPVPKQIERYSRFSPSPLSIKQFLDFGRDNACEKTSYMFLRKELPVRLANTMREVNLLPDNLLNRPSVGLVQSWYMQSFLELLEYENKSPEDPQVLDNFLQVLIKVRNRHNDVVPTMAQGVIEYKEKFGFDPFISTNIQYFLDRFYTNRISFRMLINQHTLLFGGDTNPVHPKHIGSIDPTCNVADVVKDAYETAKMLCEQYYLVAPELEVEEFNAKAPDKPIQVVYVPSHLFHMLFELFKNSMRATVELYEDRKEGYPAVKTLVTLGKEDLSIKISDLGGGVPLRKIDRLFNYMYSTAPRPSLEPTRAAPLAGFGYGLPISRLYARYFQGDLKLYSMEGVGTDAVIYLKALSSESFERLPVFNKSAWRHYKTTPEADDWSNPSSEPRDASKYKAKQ

Ki [1] [µM]	Ki [2] [µM]	Kd [3] [µM]	IC50 [4] [µM]	IC50 [5] [µM]	SMILES	also measured
3.21	0.037	0.078	0.101	2.15	Cc1cnc(Cl)nc1-c1ccc(N(Cc2ccc(CN3CCCC3)cc2)C(=O)c2ccc(O)cc2O)cc1	GI50 (PC-3): 38 µM
> 100	–	–	–	–	Cc1cnc(Cl)nc1-c1ccc(N(Cc2ccc(CNC(=O)C(F)F)cc2)C(=O)c2ccc(O)cc2O)cc1	GI50 (PC-3): 26.2 µM
2.51	0.016	0.006	0.036	3.01	C[C@H]1CCc2cc(C(=O)N(C)Cc3ccc4nccnc4c3)ccc2N1C(=O)c1ccc(O)cc1O	GI50 (PC-3): 30 µM
6.55	0.067	0.016	0.072	1.72	Cc1cnc(Cl)nc1-c1ccc(N(Cc2ccccc2)C(=O)c2ccc(O)cc2O)cc1	Kd [6]: 0.06 µM; GI50 (PC-3): > 40 µM
–	1.17	–	–	–	C[C@@H]1CCc2cc(F)ccc2N1C(=O)c1ccc(O)cc1O	inhibition [7]: 62%; koff [3]: 0.27 s⁻¹; koff [8]: 0.6 s⁻¹
–	–	–	–	–	CCNC(=O)CN(C(=O)c1ccc(O)cc1O)c1ccc(OC)cc1	IC50 [9]: 4.46 µM; Ki [9]: 2.17 µM; inhibition [7]: 74%
0.032	0.136	–	–	–	CCNC(=O)c1noc(-c2cc(Cl)c(O)cc2O)c1-c1ccc(CN2CCOCC2)cc1C	koff [3]: 0.014 s⁻¹; koff [8]: 0.001 s⁻¹
–	–	–	2.1	–	O=S(=O)(c1ccc(O)cc1O)N1Cc2cc(O)cc(O)c2C1	IC50 [1]: 47 µM; IC50 [10]: 0.84 µM
> 50	–	0.01	0.015	5.77	Cc1cnc(Cl)nc1-c1ccc2c(c1)CC[C@H](c1cccnc1)N2C(=O)c1ccc(O)cc1O	–
9.15	0.2	–	–	–	CC1CCc2cc(F)ccc2N1C(=O)c1ccc(O)cc1O (racemic)	koff [3]: 0.08 s⁻¹; koff [8]: 0.23 s⁻¹
–	–	–	–	–	COc1cc2c(cc1OC)C(c1cccnc1)N(C(=O)c1ccc(O)cc1O)CC2 (configuration not stated)	koff [3]: 0.019 s⁻¹; koff [8]: 0.29 s⁻¹
–	–	–	–	–	C[C@@H]1C[C@H]2O[C@@H]2/C=C\C=C\C(=O)Cc2c(Cl)c(O)cc(O)c2C(=O)O1 [RADICICOL]	IC50 [11]: 230 µM; IC50 [12]: 1200 µM
10.6	0.124	0.115	0.139	2.68	Cc1cc2ccccc2nc1-c1ccc2c(c1)CC[C@H](C)N2C(=O)c1ccc(O)cc1O	Kd [6]: 0.153 µM; GI50 (PC-3): 14 µM
1.98	0.037	0.019	0.063	2.74	Cc1cnc(Cl)nc1-c1ccc2c(c1)CC[C@H](C)N2C(=O)c1ccc(O)cc1O	Kd [6]: 0.032 µM; GI50 (PC-3): 40 µM
–	0.98	–	–	–	O=C(c1ccc(O)cc1O)N(Cc1ccccc1)c1ccccc1	koff [3]: 0.26 s⁻¹; koff [8]: 0.14 s⁻¹
–	–	–	–	0.041	CN(C)C(=O)c1ccc(S(=O)(=O)c2ccc(NC(=O)[C@@](C)(O)C(F)(F)F)c(Cl)c2)cc1	–
1.38	1.93	–	–	–	COc1ccc(N(C)C(=O)c2ccc(O)cc2O)cc1	IC50 [9]: 2.23 µM; Ki [9]: 1.07 µM; IC50 [1]: 3.02 µM; Ki [13]: 0.55 µM; Ki [14]: 1.27 µM
1.02	0.026	0.001	0.0627	5.65	CN(Cc1ccc2nccnc2c1)C(=O)c1ccc(N(Cc2ccccc2)C(=O)c2ccc(O)cc2O)cc1	–
1.78	0.467	0.01	0.198	2.78	C[C@H]1CCc2cc(-c3nc(Cl)nc4ccsc34)ccc2N1C(=O)c1ccc(O)cc1O	–
0.184	0.26	–	–	–	CN(C(=O)c1ccc(O)cc1O)c1ccc(C(=O)N2CC(C(=O)O)Oc3ccccc32)cc1 (configuration not stated)	–
> 50	0.64	0.009	0.135	1.82	C[C@H]1CCc2cc(-c3nc(Cl)nc4[nH]ccc34)ccc2N1C(=O)c1ccc(O)cc1O	GI50 (PC-3): 15 µM
> 50	0.241	0.01	0.201	10.6	COc1ccc(CN(C)C(=O)c2ccc(N(Cc3ccccc3)C(=O)c3ccc(O)cc3O)cc2)cc1	–
3.48	0.09	–	–	–	C[C@H]1CCc2cc(F)ccc2N1C(=O)c1ccc(O)cc1O	koff [3]: 0.08 s⁻¹; koff [8]: 0.18 s⁻¹
1.23	–	–	–	–	CN(C)C(=O)c1ccc(N(C)C(=O)c2ccc(O)cc2O)cc1	IC50 [9]: 0.35 µM; Ki [9]: 0.15 µM; IC50 [1]: 2.97 µM
–	–	–	–	–	CCN(CC)CCN(C(=O)c1ccc(O)cc1O)c1ccc(OC)cc1	IC50 [9]: 2.78 µM; Ki [9]: 1.33 µM; inhibition [7]: 79%
–	–	–	–	0.066	C[C@@H]1CN(C(=O)[C@@](C)(O)C(F)(F)F)[C@@H](C)CN1C(=O)c1ccc(C#N)cc1	–

From ChEMBL document CHEMBL4007418, “Application of Off-Rate Screening in the Identification of Novel Pan-Isoform Inhibitors of Pyruvate Dehydrogenase Kinase” (J Med Chem, 2017)
